Holding throughout (assay): Kinase selectivity, Mobility shift assay
What all share (format): biochemical

One assay has as its target p38a (Homo sapiens (Human), UniProt Q16539). The protocol: (§1) Object: In this assay, the inhibitory activity of the test substance on the kinases listed in Table 3 was determined, and therefore the selectivity of the present compound was determined.
(§2) Except for the BRAF V600E kinase in Table 3, the Mobility shift assay was used for other kinases.
(§3) 1. Preparation of Agents:
(§4) • 1.1 1-fold kinase buffer without MnCl2: 50 mM HEPES, pH 7.5, 0.0015% Brij-35, 10 mM MgCl2, 2 mM DTT. • 1.2 1-fold kinase buffer with MnCl2: 50 mM HEPES, pH 7.5, 0.0015% Brij-35, 10 mM MgCl2, 10 mM MnCl2, 2 mM DTT. • 1.3 Termination solution: 100 mM HEPES, pH 7.5, 0.0015% Brij-35, 0.2% Coating Reagent#3, 50 mM EDTA. • 1.4 2.5-fold kinase solution: The kinase was added to the 1-fold kinase buffer to form a 2.5-fold kinase solution. • 1.5 2.5-fold substrate solution: FAM fluorescence-labelled polypeptide and ATP were added to the 1-fold kinase buffer to form a 2.5-fold substrate solution. 2. Preparation of 5-fold compound
(§5) The final test concentration of the compound was 10 μM at maximum. Firstly, a 50-fold concentration (i.e. 500 μM) was prepared with 100% DMSO. The compound was diluted with 100% DMSO by 5 folds at 5 concentrations (successively 500 μM, 100 μM, 20 μM, 4 μM, and 0.8 μM). After diluting with 1-fold kinase buffer by 10 folds, 5 μl of the samples were transferred to a 384-well reaction plate. Two negative control wells and two positive control wells were set at each line respectively. Replication was made in a 96-well plate in five concentrations of 5-fold compound. 10% DMSO was added to the positive control well, and 5 μl of EDTA (250 mM) was added to the negative control well.
(§6) • 3.1 To the 384-well reaction plate was added 5-fold compound dissolved in 10% DMSO at 5 μl/well. • 3.2 To the 384-well reaction plate was added 2.5-fold kinase solution at 10 μl/well. The plate was incubated at room temperature for 10 mins. • 3.3 To the 384-well reaction plate was added 2.5-fold substrate solution at 10 μl/well. The plate was incubated at 28° C. for a certain period. • 3.4 25 μl termination solution was added to terminate the reaction. The conversion was read from Caliper. 4. Inhibition rate calculation Inhibition rate (%)=(maximum−sample value)/(maximum−minimum)×100 • wherein: • maximum refers to the conversion at the DMSO control well, • minimum refers to the conversion at the control well without kinase. Lanthascreen Analysis Method for the BRAF V600E Kinase 1. Preparation of Agents: • 1.1 2-fold kinase solution: using 1-fold kinase buffer to prepare 2-fold kinase solution, with a final concentration of 0.35 nM of BRAFV600E; • 1.2 4-fold substrate solution: using 1-fold kinase buffer to prepare 4-fold substrate solution, with a final substrate solution concentration of 0.2 μM of Fluorescein-MAP2K1 and 1.5 μM of ATP. 2. Preparation of 4-fold compound • The final test concentration of the compound was 10 μM at maximum. Firstly, a 100-fold concentration (i.e. 1000 μM) was prepared with 100% DMSO. The compound was diluted with 100% DMSO by 5 folds at 5 concentrations. The compound series was identical to that in the Mobility Shift Assay. After diluting with 1-fold kinase buffer by 25 folds, the resulting samples were shaked and mixed evenly on a plate-shaker for 10 mins. 3. Procedure • 3.1 To the 384-well reaction plate was added 4-fold compound dissolved in 10% DMSO at 2.5 µl/well; • 3.2 To the 384-well reaction plate was added 2-fold kinase solution at 5 μl/well, and to the negative control wells were added 1-fold kinase buffer. The samples were shaked, mixed evenly, and kept standing at room temperature. • 3.3 To the 384-well reaction plate was added 4-fold substrate solution at 2.5 μl/well. The plate was reacted, shaked, mixed evenly and incubated at room temperature for one hour; • 3.4 Reaction result detection: 2-fold detection solution was prepared, with a final concentration of 2 nM of Antibody and 10 mM of EDTA. 10 μl of the detection solution was transferred to the 384-well plate to terminate the reaction. […]

The target of the next assay is SGK (Homo sapiens (Human), UniProt O00141). The protocol: as §1, §2, §3, §4, §5, §6
A further assay deals with FES (Homo sapiens (Human), UniProt P07332). The protocol:
as §1, §2, §3, §4, §5, §6

In the next assay the target is JAK3 (Homo sapiens (Human), UniProt P52333). The protocol:
as §1, §2, §3, §4, §5, §6

The target of a further assay is ZAP70 (Homo sapiens (Human), UniProt P43403). The protocol:
as §1, §2, §3, §4, §5, §6

In a further assay the target is P70s6k (Homo sapiens (Human), UniProt P23443). The protocol:
as §1, §2, §3, §4, §5, §6

The target in a further assay is CSK (Homo sapiens (Human), UniProt P41240). The protocol: as §1, §2, §3, §4, §5, §6
A further assay addresses ROCK2 (Homo sapiens (Human), UniProt O75116). The protocol: as §1, §2, §3, §4, §5, §6
In the next assay the target is JNK2 (Homo sapiens (Human), UniProt P45984). The protocol: as §1, §2, §3, §4, §5, §6
The target of a further assay is AMPKa1 (Homo sapiens (Human), UniProt Q13131). The protocol: as §1, §2, §3, §4, §5, §6
Another assay addresses PDK1 (Homo sapiens (Human), UniProt O15530). The protocol:
as §1, §2, §3, §4, §5, §6

Another assay has as its target KDR (Homo sapiens (Human), UniProt P35968). The protocol:
as §1, §2, §3, §4, §5, §6

Another assay concerns the target DYRK1b (Homo sapiens (Human), UniProt Q9Y463). The protocol: as §1, §2, §3, §4, §5, §6
The target of the next assay is CKIT (Homo sapiens (Human), UniProt P10721). The protocol: as §1, §2, §3, §4, §5, §6
In a further assay the target is CK1d (Homo sapiens (Human), UniProt P48730). The protocol:
as §1, §2, §3, §4, §5, §6

The target of a further assay is MST2 (Homo sapiens (Human), UniProt Q13188). The protocol:
as §1, §2, §3, §4, §5, §6

Another assay deals with Tie2 (Homo sapiens (Human), UniProt Q02763). The protocol:
as §1, §2, §3, §4, §5, §6

A further assay has as its target AURA (Homo sapiens (Human), UniProt O14965). The protocol:
as §1, §2, §3, §4, §5, §6

The next assay addresses PKCa (Homo sapiens (Human), UniProt P17252). The protocol:
as §1, §2, §3, §4, §5, §6

Bounds are passed on as bounds.

A word on the IC50: it is the point on the concentration scale where inhibition reaches its midpoint.

Sequence of P70s6k (P23443 whole entry): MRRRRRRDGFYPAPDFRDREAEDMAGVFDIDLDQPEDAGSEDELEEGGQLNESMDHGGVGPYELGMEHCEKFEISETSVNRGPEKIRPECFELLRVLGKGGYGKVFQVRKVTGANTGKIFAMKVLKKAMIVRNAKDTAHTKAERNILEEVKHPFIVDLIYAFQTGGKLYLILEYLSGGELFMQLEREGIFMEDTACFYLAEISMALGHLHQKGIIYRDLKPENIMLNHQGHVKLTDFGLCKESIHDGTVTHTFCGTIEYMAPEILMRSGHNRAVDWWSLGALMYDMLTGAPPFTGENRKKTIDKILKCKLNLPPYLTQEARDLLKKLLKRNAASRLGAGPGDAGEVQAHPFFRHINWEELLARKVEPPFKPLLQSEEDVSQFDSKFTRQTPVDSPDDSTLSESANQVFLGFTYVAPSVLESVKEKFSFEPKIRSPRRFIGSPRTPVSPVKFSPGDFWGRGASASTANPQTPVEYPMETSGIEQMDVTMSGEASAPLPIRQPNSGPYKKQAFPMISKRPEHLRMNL
Sequence of PDK1 (O15530 whole entry): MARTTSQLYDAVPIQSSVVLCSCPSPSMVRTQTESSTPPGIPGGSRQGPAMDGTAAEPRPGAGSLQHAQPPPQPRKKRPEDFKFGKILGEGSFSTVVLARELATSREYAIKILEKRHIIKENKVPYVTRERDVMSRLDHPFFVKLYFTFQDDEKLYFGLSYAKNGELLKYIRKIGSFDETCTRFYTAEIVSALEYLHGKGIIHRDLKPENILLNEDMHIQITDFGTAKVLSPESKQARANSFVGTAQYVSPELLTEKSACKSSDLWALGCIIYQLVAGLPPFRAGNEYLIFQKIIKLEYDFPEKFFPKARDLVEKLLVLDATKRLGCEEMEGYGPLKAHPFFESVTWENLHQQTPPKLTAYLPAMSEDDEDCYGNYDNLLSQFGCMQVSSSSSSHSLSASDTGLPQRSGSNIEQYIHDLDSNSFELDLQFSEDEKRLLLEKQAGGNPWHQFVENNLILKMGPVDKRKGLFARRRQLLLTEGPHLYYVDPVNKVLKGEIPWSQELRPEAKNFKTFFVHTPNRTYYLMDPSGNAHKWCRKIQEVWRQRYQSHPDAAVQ
Sequence of AURA (O14965 whole entry, species assumed): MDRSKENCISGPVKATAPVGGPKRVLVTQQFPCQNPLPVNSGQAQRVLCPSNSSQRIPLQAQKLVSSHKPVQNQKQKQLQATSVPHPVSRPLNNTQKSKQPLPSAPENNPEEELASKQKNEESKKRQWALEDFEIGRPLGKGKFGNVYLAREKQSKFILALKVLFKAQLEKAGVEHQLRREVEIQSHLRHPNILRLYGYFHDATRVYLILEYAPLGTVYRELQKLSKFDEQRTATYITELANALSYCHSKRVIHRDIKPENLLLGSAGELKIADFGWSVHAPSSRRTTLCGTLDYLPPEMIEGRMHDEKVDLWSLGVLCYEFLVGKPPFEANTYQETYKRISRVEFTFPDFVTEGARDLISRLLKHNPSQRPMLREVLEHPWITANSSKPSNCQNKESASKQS
Sequence of KDR (P35968 20-1356, species assumed): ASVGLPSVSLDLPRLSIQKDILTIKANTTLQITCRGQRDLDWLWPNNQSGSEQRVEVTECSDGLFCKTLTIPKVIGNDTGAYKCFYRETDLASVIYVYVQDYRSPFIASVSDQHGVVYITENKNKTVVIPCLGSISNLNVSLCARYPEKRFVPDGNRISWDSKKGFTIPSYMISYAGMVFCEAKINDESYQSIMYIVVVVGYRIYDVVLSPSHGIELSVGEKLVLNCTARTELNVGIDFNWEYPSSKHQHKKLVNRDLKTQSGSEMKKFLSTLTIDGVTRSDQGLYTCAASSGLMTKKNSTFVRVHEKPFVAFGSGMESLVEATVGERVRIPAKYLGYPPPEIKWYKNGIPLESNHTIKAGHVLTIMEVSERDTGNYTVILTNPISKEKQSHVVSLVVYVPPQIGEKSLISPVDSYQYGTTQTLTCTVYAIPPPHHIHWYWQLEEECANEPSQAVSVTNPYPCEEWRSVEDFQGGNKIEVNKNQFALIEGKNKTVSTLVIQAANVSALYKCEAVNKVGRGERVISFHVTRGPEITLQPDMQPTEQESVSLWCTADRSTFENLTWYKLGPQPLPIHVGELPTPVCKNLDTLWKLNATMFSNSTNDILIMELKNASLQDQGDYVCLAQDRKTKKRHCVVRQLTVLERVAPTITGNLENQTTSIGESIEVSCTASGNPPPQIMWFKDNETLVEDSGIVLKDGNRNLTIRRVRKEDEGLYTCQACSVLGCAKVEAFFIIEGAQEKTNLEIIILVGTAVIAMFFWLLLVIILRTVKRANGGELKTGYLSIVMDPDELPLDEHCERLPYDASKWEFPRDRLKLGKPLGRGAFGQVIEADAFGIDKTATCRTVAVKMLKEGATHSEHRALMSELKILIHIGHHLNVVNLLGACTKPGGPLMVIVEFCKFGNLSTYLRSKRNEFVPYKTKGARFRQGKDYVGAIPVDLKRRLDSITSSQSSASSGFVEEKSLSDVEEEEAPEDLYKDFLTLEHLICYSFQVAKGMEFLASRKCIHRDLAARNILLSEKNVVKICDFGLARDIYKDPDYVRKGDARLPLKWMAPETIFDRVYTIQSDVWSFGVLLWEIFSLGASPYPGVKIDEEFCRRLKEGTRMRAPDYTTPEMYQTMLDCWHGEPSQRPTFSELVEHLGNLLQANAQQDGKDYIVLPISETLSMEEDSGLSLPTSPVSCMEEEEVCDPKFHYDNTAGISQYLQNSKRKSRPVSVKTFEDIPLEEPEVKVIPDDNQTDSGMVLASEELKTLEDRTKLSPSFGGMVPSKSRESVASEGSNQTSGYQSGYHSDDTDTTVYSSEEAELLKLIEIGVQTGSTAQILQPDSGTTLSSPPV
Sequence of ROCK2 (O75116 whole entry, species assumed): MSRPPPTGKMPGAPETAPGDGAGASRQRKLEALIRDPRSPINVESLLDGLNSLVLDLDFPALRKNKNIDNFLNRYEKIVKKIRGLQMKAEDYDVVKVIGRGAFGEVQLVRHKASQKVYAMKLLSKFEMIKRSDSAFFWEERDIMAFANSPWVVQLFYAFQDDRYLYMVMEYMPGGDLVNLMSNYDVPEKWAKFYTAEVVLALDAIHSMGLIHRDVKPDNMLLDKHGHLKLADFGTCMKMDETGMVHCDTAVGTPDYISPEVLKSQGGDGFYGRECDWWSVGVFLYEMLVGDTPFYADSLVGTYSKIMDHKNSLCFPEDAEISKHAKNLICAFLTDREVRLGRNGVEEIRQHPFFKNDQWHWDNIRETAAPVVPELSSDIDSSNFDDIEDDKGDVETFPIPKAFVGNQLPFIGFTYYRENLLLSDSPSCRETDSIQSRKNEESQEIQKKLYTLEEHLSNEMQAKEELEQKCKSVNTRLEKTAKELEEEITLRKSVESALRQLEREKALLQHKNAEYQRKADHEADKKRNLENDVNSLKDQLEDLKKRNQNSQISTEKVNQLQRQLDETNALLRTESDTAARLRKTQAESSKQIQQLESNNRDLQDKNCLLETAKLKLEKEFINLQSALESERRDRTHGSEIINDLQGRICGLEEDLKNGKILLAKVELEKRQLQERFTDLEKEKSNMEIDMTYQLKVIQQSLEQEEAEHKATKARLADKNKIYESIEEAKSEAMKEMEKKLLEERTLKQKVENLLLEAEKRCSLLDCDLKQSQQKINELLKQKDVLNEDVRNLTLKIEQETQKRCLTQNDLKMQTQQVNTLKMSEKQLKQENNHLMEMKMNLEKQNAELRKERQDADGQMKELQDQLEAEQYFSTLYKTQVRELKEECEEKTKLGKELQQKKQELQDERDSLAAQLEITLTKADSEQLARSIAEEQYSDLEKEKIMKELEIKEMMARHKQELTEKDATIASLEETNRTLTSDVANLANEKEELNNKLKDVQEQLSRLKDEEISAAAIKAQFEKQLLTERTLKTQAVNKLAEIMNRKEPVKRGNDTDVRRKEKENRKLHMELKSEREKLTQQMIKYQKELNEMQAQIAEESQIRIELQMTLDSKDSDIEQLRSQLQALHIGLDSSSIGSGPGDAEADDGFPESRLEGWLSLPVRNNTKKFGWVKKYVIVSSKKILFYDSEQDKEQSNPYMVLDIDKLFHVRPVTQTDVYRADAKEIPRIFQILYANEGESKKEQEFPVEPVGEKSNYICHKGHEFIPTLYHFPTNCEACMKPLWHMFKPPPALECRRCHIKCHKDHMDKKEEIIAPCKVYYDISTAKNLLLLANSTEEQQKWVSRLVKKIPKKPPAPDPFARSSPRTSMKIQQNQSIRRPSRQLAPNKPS

Regarding `Nc1ccc(-c2ccc3ncc4c(=O)[nH]c(=O)n(-c5cccc(C(F)(F)F)c5)c4c3n2)cn1` [Compound 5, 9-(6-aminopyridin-3-yl)-1-(3-(trifluoromethyl)phenyl)pyrimido[5,4-c][1,5]naphthyridine-2,4(1H,3H)-dione], the IC50 at p38a, on SGK, on FES, at JAK3, at ZAP70 and on P70s6k was greater than 10000 nM throughout. The IC50 at CSK, at ROCK2, at JNK2, at AMPKa1, at PDK1 and on KDR was greater than 10000 nM each time. For the same molecule, the IC50 on DYRK1b is greater than 10000 nM; at CKIT, greater than 10000 nM; at CK1d, greater than 10000 nM; on MST2, greater than 10000 nM; at Tie2, 2430 nM; at AURA, greater than 10000 nM. For the same molecule, the IC50 at PKCa was greater than 10000 nM.

The values are drawn from patent US9365572B2, “PI3K and/or mTOR inhibitor” (XUANZHU PHARMA CO., LTD., priority 2012, dated 2016).
